# Test results: patent publication US9682054B2, “Medium-chain length fatty acids, glycerides and analogues as stimulators of erythropoiesis” (PROMETIC PHARMA SMT LIMITED, priority 2003, dated 2017)
# Entries after “also recorded” stand apart in the source; their conditions may differ. Read-outs that look alike come from different tables or passages of the source.
# Columns and labels:
# spleen red cell = test: Chemoprotection study: spleen red cell count in cyclophosphamide treated mice; assay type: in vivo, C57BL/6 mice
# Description: Effect of tricaprin, capric acid and sodium caprate on in vivo induction of immune cell proliferation or protection was undertaken following the protocol described in example 1. After the sacrifice, tissues were crushed in PBS buffer and cells were counted on a hemacytometer. Effect of oral and intravenous administration of sodium caprate on in vivo induction of immune cell proliferation or protection was undertaken following the protocol described in example 1. After sacrifice, tissues were crushed in PBS buffer and cells were counted on a hemacytometer.
# [1] = system: bone marrow from the femur; details: for Gross pathological observations: Bone Marrow Color: femur at day +5; for appearance of the femur (bone marrow): immunosuppression induced by 5-fluorouracil (5-FU) 80 mg/kg i.v., compared with the cyclophosphamide results (red femur)
# Description: Female C57BL/6 mice, 6 to 8 week old, were immunosuppressed by treatment with 200 mg/kg of cyclophosphamide (CY) or 80 mg/kg 5-fluorouracil (5-FU) administered intravenously at day 0. To examine the immunoprotective effect of MCT or other compounds, mice were pre-treated orally at day −3, −2 and −1 at day 0 with the compound. Mice were sacrificed at day +5 by cardiac puncture and cervical dislocation. Then, a gross pathological observation of the femurs (as a source of bone marrow cells) was recorded.
# [2] = system: human hematopoietic progenitors; test: In vitro human bone marrow colony forming unit (CFU) formation assay; assay type: cell-based; details: for BFU-E / CFU-GEMM / CFU-GM / TOTAL CFC (Colony Forming Cells): tricaprin 10%; for increase in BFU-E colonies formation / increase in the number of CFU-GEMM: versus control
# Description: Bone marrow cells were obtained from the sternum of various cancer patients. Cells were washed with PBS and resuspended at a concentration of 2×10^6 cells per ml. Cells were cultured in RPMI/FBS or Myelocult (Stem cell technology, Vancouver)/FBS media in the presence or the absence of tricaprin for 5 days at 37° C. After incubation, cells were harvested, washed and counted. Based on the viable cells count, the cells were resuspended at a concentration of 5×10^5 cells per ml in IMDM media supplemented with 2% FBS. From these cells, four replicates of 2.5×10^4 cells per dish were plated in Methocult medium so that a colony forming unit (CFU) formation assay could be undertaken. CFU-GM, CFU-GEMM and BFU-E were recorded after 14 to 16 days culture.
# human bone marrow cells = test: In vitro human bone marrow cell proliferation ([3H]-thymidine incorporation); assay type: cell-based
# Description: Bone marrow cells were obtained from the sternum of cancer patients. Cells were washed with PBS and resuspended at a concentration of 2×10^6 cells per ml. Cells were cultured in RPMI/FBS media in the presence or the absence of tricaprin or tricaprylin for 48 and 72 hours at 37° C. After incubation, cells were pulsed with 1 μCi of [^3H]-thymidine for 6 hours. Plates were harvested on a Tomteck and counted on a Microbeta β-counter. Incorporation of [^3H]-thymidine in the DNA is a direct indication of the cell proliferation.
# bone marrow red cell = test: Chemoprotection study: bone marrow red cell count in cyclophosphamide treated mice, comparison with GM-CSF; assay type: in vivo, C57BL/6 mice
# Description: (§1) Effect of oral and intravenous administration of sodium caprate and GM-CSF on in vivo induction of immune cell proliferation or protection was undertaken following the protocol described in example 1. After sacrifice, tissues were crushed in PBS buffer and cells were counted on a hemacytometer.
# bone marrow cells = test: Anemia model: ex vivo bone marrow colony forming unit (CFU) formation assay; assay type: in vivo, BALB/c mice; details: i.v. pre-treatment
# Description: To examine the immunoprotective or immunorestorative effect of sodium caprate in an anemia model, BALB/c mice were pre-treated intravenously at day −3, −2 and −1 with compound. Anemia was induced by treatment with 60 mg/kg phenylhydrazine administered intraperitonealy at day 0 to female BALB/c mice, 6 to 8 week old. Mice were sacrificed at day +6 by cardiac puncture and cervical dislocation. Then, bone marrow cells were obtained from femur. Cells were flushed and washed with PBS. Based on the viable cells count, the cells were resuspended at a concentration of 5×10^5 cells per ml in IMDM media supplemented with 2% FBS. From these cells, two replicates of 3×10^4 cells per dish were plated in Methocult medium so that a colony forming unit (CFU) formation assay could be undertaken. CFU-E and BFU-E were recorded after 2 to 3 days culture. CFU-GM and CFU-GEMM were recorded after 14 to 16 days culture.
# peripheral blood cell = test: Chemoprotection study: number of peripheral blood cell; assay type: in vivo, C57BL/6 mice; details: sodium caprate used alone
# Description: as §1
# [3] = cyclophosphamide (CY) 200 mg/kg i.v. day 0 plus compound given orally as pre-treatment
# [4] = Myelocult/FBS medium, Experiment 1
# [5] = Myelocult/FBS medium, Experiment 2
# [6] = single agent (GM-CSF at high concentration, 1 μg/kg)
# [7] = normal mice, bone marrow cells in Methocult
# [8] = phenylhydrazine-induced anemia mice (60 mg/kg i.p.)
compound,measurement,setting,value
CCCCCCCCCC(=O)OCC(COC(=O)CCCCCCCCC)OC(=O)CCCCCCCCC [tricaprin],spleen red cell count,spleen red cell; oral pre-treatment,significant increase
same,Gross pathological observations: Bone Marrow Color,[1]; [3],Red
same,appearance of the femur (bone marrow),[1],same results
same,BFU-E,[2]; [4],380
same,CFU-GEMM,[2]; [4],4.75
same,CFU-GM,[2]; [4],17
same,TOTAL CFC (Colony Forming Cells),[2]; [4],401
same,BFU-E,[2]; [5],268
same,CFU-GEMM,[2]; [5],4.25
same,CFU-GM,[2]; [5],34
same,TOTAL CFC (Colony Forming Cells),[2]; [5],306
same,increase in BFU-E colonies formation,[2]; Myelocult/FBS medium,up to 6 times
same,increase in the number of CFU-GEMM,[2]; Myelocult/FBS medium,up to 2 times
same,BFU-E,"[2]; RPMI/FBS medium, Experiment 1",130
same,CFU-GEMM,"[2]; RPMI/FBS medium, Experiment 1",4.75
same,CFU-GM,"[2]; RPMI/FBS medium, Experiment 1",26
same,TOTAL CFC (Colony Forming Cells),"[2]; RPMI/FBS medium, Experiment 1",161
same,BFU-E,"[2]; RPMI/FBS medium, Experiment 2",121
same,CFU-GEMM,"[2]; RPMI/FBS medium, Experiment 2",4
same,CFU-GM,"[2]; RPMI/FBS medium, Experiment 2",25
same,TOTAL CFC (Colony Forming Cells),"[2]; RPMI/FBS medium, Experiment 2",150
same,increase in BFU-E colonies formation,[2]; RPMI/FBS medium,up to 13 times
same,increase in the number of CFU-GEMM,[2]; RPMI/FBS medium,up to 3 times
same,bone marrow proliferation in combination with erythropoietin (EPO),human bone marrow cells; 48 hours,additive
same,bone marrow proliferation in combination with erythropoietin (EPO),human bone marrow cells; 72 hours,synergistic
CCCCCCCCCC(=O)O [capric acid],spleen red cell count,spleen red cell; oral pre-treatment,significant increase
same,Gross pathological observations: Bone Marrow Color,[1]; [3],Red
same,appearance of the femur (bone marrow),[1],same results
CCCCCCCCCC(=O)[O-].[Na+] [sodium caprate],bone marrow red cell count,bone marrow red cell; in combination with GM-CSF,additive increase
same,bone marrow red cell count,bone marrow red cell; [6],significant increase
same,number of CFU-E,bone marrow cells; [7],enhances
same,number of CFU-GEMM,bone marrow cells; [7],enhances
same,CFU-E,bone marrow cells; [8],strong increase
same,CFU-GEMM,bone marrow cells; [8],strong increase
same,CFU-GM,bone marrow cells; [8],strong increase
same,spleen red cell count,spleen red cell; intravenous pre-treatment,significant increase; also recorded: increases the spleen red cell counts to the baseline level of control mice
same,spleen red cell count,spleen red cell; oral pre-treatment,significant increase
same,number of peripheral blood cell,peripheral blood cell,significant increase
same,Gross pathological observations: Bone Marrow Color,[1]; [3],Red
same,appearance of the femur (bone marrow),[1],same results
"GM-CSF: GM-CSF, comparator growth factor used at 1 μg/kg",bone marrow red cell count,bone marrow red cell; [6],significant increase
CCCCCCCC(=O)OCC(COC(=O)CCCCCCC)OC(=O)CCCCCCC [tricaprylin],Gross pathological observations: Bone Marrow Color,[1]; [3],Red
same,appearance of the femur (bone marrow),[1],same results
same,bone marrow proliferation in combination with erythropoietin (EPO),human bone marrow cells; time not stated,synergistic increase
same,increase in bone marrow proliferation relative to the control,"human bone marrow cells; human bone marrow cells, RPMI/FBS, 48 and 72 hours, [3H]-thymidine",2 fold
"O=P1(N(CCCl)CCCl)NCCCO1 (stereo not shown) [CY, cyclophosphamide, reference compound]",Gross pathological observations: Bone Marrow Color,[1]; cyclophosphamide (CY) 200 mg/kg i.v. day 0 alone,"White, almost translucent"
